The text below walks through data of US10751303B2, “Method for shortening anti-infective therapy duration in subjects with infection” (INSTITUTE FOR CLINICAL PHARMACODYNAMICS, INC., priority 2015, dated 2020).

Holding throughout (type): cell-based
Experiment [1] deals with E. coli JMI 21711R. As to the kind of experiment: change in bacterial density in vitro over 24 hours (growth rate). The source says: Moreover, note the impact of ascorbic acid on the time-course of levofloxacin antimicrobial activity.
In experiment [2] the test system is S. aureus ATCC 29213. As to the kind of experiment: 10-day hollow-fiber in vitro infection model. From the text:
The treatment arms and associated control arms differed only in sodium chloride concentration (0 and 8%) within the growth media. The initial bacterial inoculum in the model was 1×10^8 CFU/mL was selected to approximate that observed in high-density infections, such as pneumonia. Moreover, the 10-day study duration was selected to approximate that typical for pneumonia.
Note that in the media in which the challenge isolate grew slowly (sodium chloride 8%), the time-until a reduction of bacterial density to 1×10^2 CFU/mL was 10 days. On the other hand, in the media in which the challenge isolate grew rapidly (sodium chloride 0%), the time-until reduction of bacterial density to 1×10^2 CFU/mL was 3 days.

Experiment [3] has as its system S. aureus ATCC 29213. In words: levofloxacin MIC. The note with it: Staphylococcus aureus, ATCC29213.
Experiment [4] deals with E. coli JMI 21711R. In words: levofloxacin MIC. The note with it: Escherichia coli, JMI21711R.
For experiment [5], the system named is E. coli JMI 21711R. The note with it: norepinephrine 500 μM, no levofloxacin. How it is done:
Each treatment arm and its associated control arm differed only in norepinephrine concentration (0, 500 μM) within the growth media.

Experiment [6] concerns S. aureus ATCC 29213. In words: change in bacterial density in vitro over 24 hours (growth rate in Mueller-Hinton II broth). The note with it: S. aureus ATCC 29213, in vitro over 24 hours, starting inoculum 1×10^6 CFU/mL, increasing sodium chloride concentration.
The subject of experiment [7] is S. aureus ATCC 29213. In words: 24-hour one-compartment dynamic in vitro infection model. The note with it: 10% sodium chloride, no levofloxacin. The source says:
Not previously recognized is the potential to modulate the intrinsic bacterial replication rate in combination with an antimicrobial agent as a means to increase the rate and extent of bactericidal activity. […] Each treatment arm and associated control arm differed only in sodium chloride concentration (0, 8, and 10%) within the growth media. […] Note also that bacterial killing occurred only during bacterial replication.

In brackets after ≈: the same amount, converted by molar mass. Entries after “also recorded” stand apart in the source; their conditions may differ.

For `O=C1O[C@H]([C@@H](O)CO)C(O)=C1O` [ascorbic acid, Ascorbic acid], the “bacterial replication rate relative to no treatment control” value in experiment [1] (ascorbic acid without levofloxacin) was “increases the bacterial replication rate relative to no treatment control”.
What is called MIC is the lowest concentration that inhibits growth of the organism. Lower therefore signals a more susceptible organism. In the case of `C[C@H]1COc2c(N3CCN(C)CC3)c(F)cc3c(=O)c(C(=O)O)cn1c23` [levofloxacin], the “reduction in time-until a reduction of bacterial density to 1×10^2 CFU/mL” value in experiment [2] (fast (sodium chloride 0%) versus slow (sodium chloride 8%) growing media) is reported as 70%. Moreover, the “time-until reduction of bacterial density to 1×10^2 CFU/mL” value in experiment [2] (sodium chloride 0% (rapid growth), initial inoculum 1×10^8 CFU/mL, levofloxacin AUC:MIC ratio 520) was 3 days. In addition, the “time-until a reduction of bacterial density to 1×10^2 CFU/mL” value in experiment [2] (sodium chloride 8% (slow growth), initial inoculum 1×10^8 CFU/mL, levofloxacin AUC:MIC ratio 520) was 10 days. Moreover, the minimal inhibitory concentration (MIC) in experiment [3] was determined as 0.125 µg/mL (≈ 0.346 µM); in experiment [4] it was 8 µg/mL (≈ 22.1 µM).
In the case of `NCC(O)c1ccc(O)c(O)c1` (stereo not shown) [norepinephrine, Norepinephrine], in experiment [1] (starting inoculum 1×10^6 CFU/mL, increasing norepinephrine concentration), the “bacterial replication rate (change in bacterial density)” value is listed as “as norepinephrine concentration increases so too does the bacterial replication rate; also recorded: sped up”. Besides, the “growth of control arm relative to no-treatment control arm” value in experiment [5] is recorded as “grew faster”.
For the molecule `[Cl-].[Na+]` [sodium chloride], the “bacterial replication rate (change in bacterial density)” value in experiment [6] is given as “as sodium chloride concentration increases, the bacterial replication rate decreases; also recorded: slowed”. In addition, the “growth in control arm” value in experiment [7] was “delayed for four hours”.
